# ChEMBL document CHEMBL6096680, “Development of PRC1 Inhibitors Employing Fragment-Based Approach and NMR-Guided Optimization” (J Med Chem, 2025)
# Active and inactive are the calls of the source. No cut-off for these calls is given here.
# Experiments:
# [1] = Inhibition of 6His-tagged RING1B (10 to 116 residues)/BMI1 (1 to 104 residues) (unknown origin) extracted from Escherichia coli BL21 (DE3) cells preincubated with compound for 1 hrs followed by 3-(1-(4,26-dioxo-30-((3aS,4S,6aR)-2-oxohexahydro-1H-thieno[3,4-d]imidazol-4-yl)-7,10,13,16,19,22-hexaoxa-3,25-diazatriacontyl)-6-methoxy-1H-indol-4-yl)-5-(6-fluoro-1H-indol-4-yl)-4-isopropyl-1H-pyrrole-2-carboxylic acid addition and measured after 1 hrs by Alphascreen competition assay; design: species or system Homo sapiens
# [2] = Selectivity ratio of IC50 for inhibition of 6His-tagged RING1B (10 to 116 residues)-BMI1 (1 to 104 residues) (unknown origin) extracted from Escherichia coli BL21 (DE3) cells to IC50 for inhibition of 6His-tagged RING1A (7 to 113 residues)-BMI1 (1 to 104 residues) (unknown origin) extracted from Escherichia coli BL21 (DE3) cells
# Homo sapiens [3] = organism: Homo sapiens; assay: Binding affinity to 15N-labeled RING1B (10 to 116 residues)/BMI1 (1 to 104 residues) (unknown origin) extracted from Escherichia coli BL21 (DE3) cells assessed as ratio of chemical shift perturbations at 1:2 compound concentration ration by NMR binding analysis
# [4] = Inhibition of 6His-tagged RING1A (7 to 113 residues)-BMI1 (1 to 104 residues) (unknown origin) extracted from Escherichia coli BL21 (DE3) cells preincubated with compound for 1 hrs followed by 3-(1-(4,26-dioxo-30-((3aS,4S,6aR)-2-oxohexahydro-1H-thieno[3,4-d]imidazol-4-yl)-7,10,13,16,19,22-hexaoxa-3,25-diazatriacontyl)-6-methoxy-1H-indol-4-yl)-5-(6-fluoro-1H-indol-4-yl)-4-isopropyl-1H-pyrrole-2-carboxylic acid addition and measured after 1 hrs by Alphascreen competition assay; design: species or system Homo sapiens
# Homo sapiens [5] = organism: Homo sapiens; assay: Binding affinity to 15N-labeled RING1B (10 to 116 residues)/BMI1 (1 to 104 residues) (unknown origin) extracted from Escherichia coli BL21 (DE3) cells assessed as sum of A79, G83 and T89 chemical shift perturbations at 100 uM by NMR binding analysis
# Homo sapiens [6] = organism: Homo sapiens; assay: Binding affinity to 15N-labeled RING1B (10 to 116 residues)/BMI1 (1 to 104 residues) (unknown origin) extracted from Escherichia coli BL21 (DE3) cells assessed as sum of A79, G83 and T89 chemical shift perturbations at 200 uM by NMR binding analysis
# [7] = Binding affinity to 15N-labeled RING1B (10 to 116 residues)/BMI1 (1 to 104 residues) (unknown origin) extracted from Escherichia coli BL21 (DE3) cells assessed as dissociation constant by NMR-based fragment screening analysis; design: species or system Homo sapiens
# [8] = Binding affinity to RING1B (10 to 116 residues)/BMI1 (1 to 104 residues) (unknown origin) extracted from Escherichia coli BL21 (DE3) cells assessed as dissociation constant by ITC analysis; design: species or system Homo sapiens
# Homo sapiens [9] = organism: Homo sapiens; assay: Binding affinity to 15N-labeled RING1A (7 to 113 residues)/BMI1 (1 to 104 residues) (unknown origin) extracted from Escherichia coli BL21 (DE3) cells assessed as chemical shift perturbation for amide of Gly83 residue at 60 to 120 uM by 1H-15N HSQC spectra based NMR titration analysis; conditions: dose 60-120 µM
# Homo sapiens [10] = organism: Homo sapiens; assay: Binding affinity to 15N-labeled RING1B (10 to 116 residues)/BMI1 (1 to 104 residues) (unknown origin) extracted from Escherichia coli BL21 (DE3) cells assessed as chemical shift perturbation for amide of Gly83 residue at 60 to 120 uM by 1H-15N HSQC spectra based NMR titration analysis; conditions: dose 60-120 µM
# [11] = Binding affinity to RING1B (10 to 116 residues)/BMI1 (1 to 104 residues) (unknown origin) extracted from Escherichia coli BL21 (DE3) cells assessed as chemical shift perturbation for amide of Gly83 residue by measuring estimated dissociation constant by 1H-15N HSQC spectra based NMR titration analysis; design: species or system Homo sapiens
# Homo sapiens [12] = organism: Homo sapiens; assay: (§1) Inhibition of RING1B (10 to 116 residues)-BMI1 (1 to 104 residues) (unknown origin) extracted from Escherichia coli BL21 (DE3) cells using HeLa nucleosome as substrate assessed as reduction in reduction in H2AK119 ubiquitination preincubated with compound for 1 hrs followed by flag-tagged ubiquitin and substrate addition and measured after 1 hrs by Western blot analysis; conditions: time 2.0 hrs
# [13] = as §1; design: species or system Homo sapiens
Structure (SMILES),IC50 [1] [µM],Ratio (Homo sapiens [3]),Activity (Homo sapiens [5]) [Hz],Activity (Homo sapiens [6]) [Hz],also measured
Cc1cc(-c2c(C(=O)O)[nH]c(-c3cc(F)cc4[nH]ccc34)c2C(C)C)c2cc[nH]c2c1,4.8,0.82,261,319,Ratio IC50 [2]: 2; IC50 [4]: 2.6 µM
CC(CO)c1c(-c2cccc3[nH]ccc23)[nH]c(C(=O)O)c1-c1cccc2[nH]ccc12 (stereo not drawn),37.7,0.62,107,172,–
O=C(O)c1ccc(-c2ccccc2)[nH]1,–,–,–,–,Kd [7]: 3600 µM
CC(C)c1c(-c2cccc3[nH]ccc23)[nH]c(C(=O)O)c1-c1cccc2[nH]ccc12,3.6,0.95,295,311,Kd [8]: 6.5 µM
CC(C)c1c(-c2cc(F)cc3[nH]ccc23)[nH]c(C(=O)O)c1-c1cc(F)cc2[nH]ccc12,4.3,0.97,320,330,–
CC(C)c1c(-c2cc(Cl)cc3[nH]ccc23)[nH]c(C(=O)O)c1-c1c(Cl)ccc2[nH]ccc12,5.3,–,–,–,–
CC(C)c1c(-c2cc(F)cc3[nH]ccc23)[nH]c(C(=O)O)c1-c1cc(Cl)cc2[nH]ccc12,2.8,0.92,280,305,–
Cc1cc(-c2[nH]c(C(=O)O)c(-c3c(Cl)ccc4[nH]ccc34)c2C(C)C)c2cc[nH]c2c1,5.8,–,–,–,Ratio IC50 [2]: 2; IC50 [4]: 2.5 µM
COc1cc(-c2c(C(=O)O)[nH]c(-c3cc(F)cc4[nH]ccc34)c2C(C)C)c2ccn(CCNC(=O)CCOCCOCCOCCOCCOCCOCCNC(=O)CCCC[C@@H]3SC[C@@H]4NC(=O)N[C@@H]43)c2c1,–,–,–,–,Activity (Homo sapiens [9]): Active; Activity (Homo sapiens [10]): Active
CCOc1cc(-c2c(C(=O)O)[nH]c(-c3cc(F)cc4[nH]ccc34)c2C(C)C)c2cc[nH]c2c1,2.3,0.95,313,331,–
CCc1cc(-c2c(C(=O)O)[nH]c(-c3cc(F)cc4[nH]ccc34)c2C(C)C)c2cc[nH]c2c1,5.4,0.92,285,309,Ratio IC50 [2]: 2; IC50 [4]: 3.2 µM
CC(C)c1c(-c2cc(F)cc3[nH]ccc23)[nH]c(C(=O)O)c1-c1cccc2[nH]ccc12,3.3,0.94,308,329,Kd [8]: 4 µM
O=C(O)c1[nH]c(-c2cccc3[nH]ccc23)c(C2CC2)c1-c1cccc2[nH]ccc12,15.8,0.65,138,211,–
Cc1ccc2[nH]ccc2c1-c1[nH]c(C(=O)O)c(-c2c(Cl)ccc3[nH]ccc23)c1C(C)C,5.1,–,–,–,–
Cc1cc(-c2cccc3[nH]ccc23)[nH]c1C(=O)O,–,–,–,–,Kd [11]: 1100 µM
CC(C)c1c(-c2cc(F)cc3[nH]ccc23)[nH]c(C(=O)O)c1-c1cc(C(F)(F)F)cc2[nH]ccc12,5.5,0.93,298,319,–
COc1cc(-c2c(C(=O)O)[nH]c(-c3cc(F)cc4[nH]ccc34)c2C(C)C)c2cc[nH]c2c1,2.5,0.92,318,338,–
CCc1cc(-c2[nH]c(C(=O)O)c(-c3c(Cl)ccc4[nH]ccc34)c2C(C)C)c2cc[nH]c2c1,6.3,–,–,–,–
CC(C)c1c(-c2ccc3cc[nH]c3c2)[nH]c(C(=O)O)c1-c1c(Cl)ccc2[nH]ccc12,10.9,–,–,–,–

Structure (SMILES),IC50 [1] [µM],Ratio (Homo sapiens [3]),Activity (Homo sapiens [5]) [Hz],Activity (Homo sapiens [6]) [Hz],also measured
CC(C)c1c(-c2cccc3[nH]c(C(=O)O)cc23)[nH]c(C(=O)O)c1-c1c(Cl)ccc2[nH]ccc12,2.2,–,–,–,–
CC(C)c1c(-c2cc(F)cc3cc[nH]c23)[nH]c(C(=O)O)c1-c1c(Cl)ccc2[nH]ccc12,4.4,–,–,–,–
O=C(O)c1ccc(-c2cccc3[nH]ccc23)[nH]1,–,–,–,–,Kd [11]: 2200 µM
CCc1c(-c2cccc3[nH]ccc23)[nH]c(C(=O)O)c1-c1ccccc1Cl,–,–,–,–,Kd [7]: 11.5 µM
CCc1c(C(=O)O)[nH]c(-c2cccc3[nH]ccc23)c1CC,–,–,–,–,Kd [11]: 250 µM
CCc1c(-c2cccc3[nH]ccc23)[nH]c(C(=O)O)c1-c1cccc2[nH]ccc12,13,0.63,102,163,Kd [7]: 9 µM; inhibition (Homo sapiens [12]): Dose-dependent-effect; Inhibition Of E3 Ligase Activity Of Prc1 Observed; IC50 [13]: 19.3 µM
CCc1c(-c2cccc3[nH]ccc23)[nH]c(C(=O)O)c1C1CCCCC1,–,–,–,–,Kd [11]: 170 µM
CC(C)c1c(-c2cccc3[nH]ccc23)[nH]c(C(=O)O)c1-c1c(Cl)ccc2[nH]ccc12,2.9,–,–,–,–
O=C(O)c1ccc(-c2ccccc2)s1,–,–,–,–,Kd [7]: 7000 µM
CC(c1c(-c2cccc3[nH]ccc23)[nH]c(C(=O)O)c1-c1cccc2[nH]ccc12)C(F)F (stereo not drawn),8.2,0.81,215,264,Ratio IC50 [2]: 2; IC50 [4]: 4.3 µM
CC(C)c1c(-c2cccc3[nH]c(CO)cc23)[nH]c(C(=O)O)c1-c1c(Cl)ccc2[nH]ccc12,2,–,–,–,–
CC(CF)c1c(-c2cccc3[nH]ccc23)[nH]c(C(=O)O)c1-c1cccc2[nH]ccc12 (stereo not drawn),8,0.78,216,277,–
CC(C)c1c(-c2cc(C(F)(F)F)cc3[nH]ccc23)[nH]c(C(=O)O)c1-c1c(Cl)ccc2[nH]ccc12,7.2,–,–,–,inhibition (Homo sapiens [12]): Dose-dependent-effect; Inhibition Of E3 Ligase Activity Of Prc1 Observed; IC50 [13]: 6.7 µM
COc1cc(-c2[nH]c(C(=O)O)c(-c3c(Cl)ccc4[nH]ccc34)c2C(C)C)c2cc[nH]c2c1,5,–,–,–,–
CC(C)c1c(-c2ccc3[nH]ccc3c2)[nH]c(C(=O)O)c1-c1c(Cl)ccc2[nH]ccc12,4,–,–,–,–
Cc1cc(C(=O)O)[nH]c1-c1cccc2[nH]ccc12,–,–,–,–,Kd [7]: 1400 µM
CCC(C)c1c(-c2cccc3[nH]ccc23)[nH]c(C(=O)O)c1-c1cccc2[nH]ccc12 (stereo not drawn),5.6,0.92,268,291,–
CCc1c(-c2cccc3[nH]ccc23)[nH]c(C(=O)O)c1-c1ccccc1,–,–,–,–,Kd [11]: 30 µM
